Results on three compounds are retold here after patent publication US20140094451A1, “PREVENTIVE OR REMEDY FOR GLAUCOMA” (Kowa Co., Ltd., priority 2005, published 2014).

The subject of one assay is Japanese white rabbits. The assay can be described thus: Ocular hypotensive effect (IOP change from initial IOP) after instillation, alone or in combination. As to conditions: FIG. 2; single drug treatment groups; instillation 50 μL, male JW rabbits. It counts as in vivo. As to the method: To examine usefulness of combination use of a Rho kinase inhibitor and an α1 blocker, the ocular hypotensive effects were compared by administering either of these drugs alone or both in combination to laboratory animals. (S)-(−)-1-(4-fluoro-5-isoquinolinesulfonyl)-2-methyl-1,4-homopiperazine-hydrochloride dihydrate was dissolved in physiological saline, and the solution was neutralized (pH 6.0) by adding sodium dihydrogenphosphate and sodium hydroxide to prepare a (S)-(−)-1-(4-fluoro-5-isoquinolinesulfonyl)-2-methyl-1,4-homopiperazine solution at a desired concentration. The commercially available “Eril® S Injection” (Asahi Kasei Pharma) was used as it was. The commercially available “Detantol 0.01% Ophthalmic Solution” (Santen Pharmaceutical Co., Ltd.) was used as it was. The ocular hypotensive effect was examined after the combination use of (S)-(−)-1-(4-fluoro-5-isoquinolinesulfonyl)-2-methyl-1,4-homopiperazine and bunazosin. As a control, the ocular hypotensive effect was also examined after the use of bunazosin alone or (S)-(−)-1-(4-fluoro-5-isoquinolinesulfonyl)-2-methyl-1,4-homopiperazine alone. Similarly, the ocular hypotensive effect was examined after the combination use of hexahydro-1-(5-isoquinolinesulfonyl)-1H-1,4-diazepine and bunazosin. […]

The next assay deals with rabbits with normal IOP. As to conditions: cited from earlier work.

Turning to `O=S(=O)(c1cccc2cnccc12)N1CCCNCC1` [hexahydro-1-(5-isoquinolinesulfonyl)-1H-1,4-diazepine], in the assay with Japanese white rabbits, the “time after instillation when the ocular hypotensive effect disappeared” value came out at 5 h.

`CCCC(=O)N1CCCN(c2nc(N)c3cc(OC)c(OC)cc3n2)CC1` [bunazosin]: the “time after instillation when the ocular hypotensive effect disappeared” value in the assay with Japanese white rabbits worked out at 5 h.

With `C[C@@H](N)c1ccc(C(=O)Nc2ccnc3[nH]ccc23)cc1` [Y-39983], in the assay on rabbits with normal IOP, the “time after instillation from which IOP is lowered” value was 1 h and the “time of maximum ocular hypotensive effect after instillation” value was 2 to 4 h. Further, the “maximum IOP reduction” value with rabbits with normal IOP (instillation, concentration of 0.10) was 15 mmHg.
